Measured values published in patent US20170216355A1, “Methods and Compositions for Enhancing T Cell Function and Survival” (Augusta University Research Institute, Inc., priority 2016, published 2017).
“Also recorded” adds a separate entry of the source.

Legend:
[1] = system: CD8 T cells from pMel-1 mice; experiment: Phenotyping of gp100-activated CD8 T cells (CD62L/CD44 flow cytometry); format: cell-based, mouse; settings: for phenotype of CD8 T cells (TCM vs TEM) compared to non-treated cells: after 3 days of stimulation with 1 μM gp100 25-33 (7 days culture); for CD62L expression level: day 3, and day 7 after each stimulation with gp100
Protocol: CD8 T cells from pMel-1 mice were activated in vitro as previously described^5. Briefly, homogenized pMel-1 splenocytes were stimulated with gp10025-33 peptide at a 1 μM concentration (day 0). Cells were cultured in RPMI 1640 (Lonza) supplemented with 10% FBS, penicillin (100 U/mL), streptomycin ([…]), 0.1% β-mercaptoethanol (Life Technologies, Invitrogen) and IL-2 (100 U/ml) (Peprotech) at 37° C. with 5% CO2. pMel-1 cells were cultured with or without the different PI3K inhibitors. The concentration of the inhibitors was maintained throughout the culture by changing the media every 48-72 hours.
On Days 7, 14 and 21, cells were re-stimulated with gp10025-33 peptide at a 1 μM concentration using feeder cells (irradiated WT splenocytes, 4000 Rads) at 1:1 ratio using the same culture conditions.
Cells were labeled with 5 μM Violet Cell Trace (VCT) proliferation dye (Life Technologies, Invitrogen) prior to their stimulation (day 0) following the manufacturers' instructions. The proliferation of CD8 T cells was assessed via VCT dye dilution (day 3) using an LSRII SORP with HTS Flow Cytometer (BD Biosciences). The data were analyzed using FlowJo 10 (Tree Star). The cultured cells were harvested on days 3, 7, 14 and 21 to assess their phenotype. Cells were stained with the following surface marker antibodies (BD Biosciences): APC-Cy7 labeled anti-CD8, FITC labeled anti-Vβ13, PE labeled anti-CD62L, APC labeled anti-CD44, PE-CF594 labeled anti-CD127, APC labeled anti-KLRG-1 in addition to the viability stain 7AAD. All the analyses were performed on viable (7AAD−), Vβ13+CD8+ T cells.

[2] = system: CD8 T cells from pMel-1 mice; experiment: Cytometric Bead Array of IL-2, TNF and IFN-γ secretion; format: cell-based, mouse
[3] = system: CD8 T cells from pMel-1 mice; experiment: Proliferation assay (VCT dye dilution) and fold expansion of CD8 T cells; format: cell-based, mouse
Protocol: CD8 T cells from pMel-1 mice were activated in vitro as previously described^5. […] The concentration of the inhibitors was maintained throughout the culture by changing the media every 48-72 hours. […] The data were analyzed using FlowJo 10 (Tree Star). […] Cells were stained with the following surface marker antibodies (BD Biosciences): APC-Cy7 labeled anti-CD8, FITC labeled anti-Vβ13, PE labeled anti-CD62L, APC labeled anti-CD44, PE-CF594 labeled anti-CD127, APC labeled anti-KLRG-1 in addition to the viability stain 7AAD. All the analyses were performed on viable (7AAD−), Vβ13+CD8+ T cells.

p110γ = p110γ (Homo sapiens, UniProt P48736); settings: cited from earlier work
p110δ = p110δ (Homo sapiens, UniProt O00329); settings: cited from earlier work
p110α = p110α (Homo sapiens, UniProt P42336); settings: cited from earlier work
p110α, sequence (P42336 whole entry, species assumed): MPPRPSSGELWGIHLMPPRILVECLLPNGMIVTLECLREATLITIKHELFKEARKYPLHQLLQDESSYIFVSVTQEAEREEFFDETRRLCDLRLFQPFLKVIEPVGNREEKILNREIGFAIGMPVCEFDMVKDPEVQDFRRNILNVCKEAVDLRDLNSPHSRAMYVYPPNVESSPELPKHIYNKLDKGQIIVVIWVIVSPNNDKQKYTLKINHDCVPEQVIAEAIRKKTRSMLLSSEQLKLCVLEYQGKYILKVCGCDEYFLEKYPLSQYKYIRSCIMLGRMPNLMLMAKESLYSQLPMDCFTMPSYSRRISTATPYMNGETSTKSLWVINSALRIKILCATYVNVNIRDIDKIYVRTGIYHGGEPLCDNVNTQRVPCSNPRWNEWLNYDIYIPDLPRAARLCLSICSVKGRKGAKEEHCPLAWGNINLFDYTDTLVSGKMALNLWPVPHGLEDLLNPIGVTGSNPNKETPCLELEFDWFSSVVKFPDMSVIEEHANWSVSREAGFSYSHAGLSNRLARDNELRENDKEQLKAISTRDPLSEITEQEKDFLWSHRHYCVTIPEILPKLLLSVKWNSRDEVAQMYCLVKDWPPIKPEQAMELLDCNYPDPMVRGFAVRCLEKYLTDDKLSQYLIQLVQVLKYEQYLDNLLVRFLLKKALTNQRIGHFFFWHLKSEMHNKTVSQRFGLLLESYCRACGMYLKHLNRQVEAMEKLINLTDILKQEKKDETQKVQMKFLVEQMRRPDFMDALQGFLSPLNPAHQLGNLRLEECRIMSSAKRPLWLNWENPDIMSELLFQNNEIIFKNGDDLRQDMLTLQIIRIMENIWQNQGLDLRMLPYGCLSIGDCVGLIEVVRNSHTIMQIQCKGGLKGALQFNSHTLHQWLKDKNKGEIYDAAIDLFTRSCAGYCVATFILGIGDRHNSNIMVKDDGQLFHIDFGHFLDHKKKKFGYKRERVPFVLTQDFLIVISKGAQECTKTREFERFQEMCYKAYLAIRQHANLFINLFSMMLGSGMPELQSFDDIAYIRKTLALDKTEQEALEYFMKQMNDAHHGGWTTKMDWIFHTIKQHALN

p110δ, sequence (O00329 whole entry, species assumed): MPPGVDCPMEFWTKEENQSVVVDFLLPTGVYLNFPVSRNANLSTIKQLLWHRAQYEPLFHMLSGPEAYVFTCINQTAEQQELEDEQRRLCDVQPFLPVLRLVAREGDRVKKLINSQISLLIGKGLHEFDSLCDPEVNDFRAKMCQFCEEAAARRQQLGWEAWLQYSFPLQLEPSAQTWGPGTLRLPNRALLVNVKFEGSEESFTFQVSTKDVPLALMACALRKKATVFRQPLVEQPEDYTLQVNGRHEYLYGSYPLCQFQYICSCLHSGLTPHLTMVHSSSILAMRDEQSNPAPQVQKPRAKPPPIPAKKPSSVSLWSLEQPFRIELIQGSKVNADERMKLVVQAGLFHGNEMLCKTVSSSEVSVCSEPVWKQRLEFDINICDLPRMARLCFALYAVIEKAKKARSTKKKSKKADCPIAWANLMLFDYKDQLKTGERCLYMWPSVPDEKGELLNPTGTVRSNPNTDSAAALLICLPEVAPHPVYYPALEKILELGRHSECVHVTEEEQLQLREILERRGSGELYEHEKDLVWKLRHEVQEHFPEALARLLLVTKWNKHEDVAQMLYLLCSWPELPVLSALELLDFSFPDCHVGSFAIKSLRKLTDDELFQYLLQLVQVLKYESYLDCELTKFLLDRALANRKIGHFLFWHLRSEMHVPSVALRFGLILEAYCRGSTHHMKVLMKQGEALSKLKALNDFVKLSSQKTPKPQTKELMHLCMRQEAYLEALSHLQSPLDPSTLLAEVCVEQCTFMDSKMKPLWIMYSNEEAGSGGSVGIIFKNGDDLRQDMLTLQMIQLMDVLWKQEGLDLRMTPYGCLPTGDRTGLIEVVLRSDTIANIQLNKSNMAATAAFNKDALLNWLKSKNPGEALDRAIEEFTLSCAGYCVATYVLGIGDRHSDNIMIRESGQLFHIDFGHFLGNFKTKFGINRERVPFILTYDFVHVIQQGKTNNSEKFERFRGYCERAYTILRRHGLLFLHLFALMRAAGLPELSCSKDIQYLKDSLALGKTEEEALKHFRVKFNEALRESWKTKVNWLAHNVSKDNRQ
p110δ, sequence (P27986 whole entry partner, species assumed): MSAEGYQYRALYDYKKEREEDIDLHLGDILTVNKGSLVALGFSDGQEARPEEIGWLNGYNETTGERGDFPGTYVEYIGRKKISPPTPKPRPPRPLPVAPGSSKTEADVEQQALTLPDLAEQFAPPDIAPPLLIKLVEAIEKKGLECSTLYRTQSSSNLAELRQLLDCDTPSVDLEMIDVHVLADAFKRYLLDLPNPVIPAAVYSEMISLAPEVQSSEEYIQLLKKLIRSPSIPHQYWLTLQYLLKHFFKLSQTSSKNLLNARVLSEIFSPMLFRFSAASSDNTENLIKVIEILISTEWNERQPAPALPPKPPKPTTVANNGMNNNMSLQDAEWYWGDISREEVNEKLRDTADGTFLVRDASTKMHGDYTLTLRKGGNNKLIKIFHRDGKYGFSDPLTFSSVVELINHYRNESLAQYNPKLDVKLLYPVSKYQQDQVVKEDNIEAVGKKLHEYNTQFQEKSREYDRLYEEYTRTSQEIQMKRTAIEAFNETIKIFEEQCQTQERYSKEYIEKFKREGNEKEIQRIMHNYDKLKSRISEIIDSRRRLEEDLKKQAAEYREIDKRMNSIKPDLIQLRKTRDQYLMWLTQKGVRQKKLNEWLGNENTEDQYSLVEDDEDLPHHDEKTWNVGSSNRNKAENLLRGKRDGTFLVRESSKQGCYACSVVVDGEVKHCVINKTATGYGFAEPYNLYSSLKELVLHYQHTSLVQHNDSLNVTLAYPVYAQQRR
p110γ, sequence (P48736 whole entry, species assumed): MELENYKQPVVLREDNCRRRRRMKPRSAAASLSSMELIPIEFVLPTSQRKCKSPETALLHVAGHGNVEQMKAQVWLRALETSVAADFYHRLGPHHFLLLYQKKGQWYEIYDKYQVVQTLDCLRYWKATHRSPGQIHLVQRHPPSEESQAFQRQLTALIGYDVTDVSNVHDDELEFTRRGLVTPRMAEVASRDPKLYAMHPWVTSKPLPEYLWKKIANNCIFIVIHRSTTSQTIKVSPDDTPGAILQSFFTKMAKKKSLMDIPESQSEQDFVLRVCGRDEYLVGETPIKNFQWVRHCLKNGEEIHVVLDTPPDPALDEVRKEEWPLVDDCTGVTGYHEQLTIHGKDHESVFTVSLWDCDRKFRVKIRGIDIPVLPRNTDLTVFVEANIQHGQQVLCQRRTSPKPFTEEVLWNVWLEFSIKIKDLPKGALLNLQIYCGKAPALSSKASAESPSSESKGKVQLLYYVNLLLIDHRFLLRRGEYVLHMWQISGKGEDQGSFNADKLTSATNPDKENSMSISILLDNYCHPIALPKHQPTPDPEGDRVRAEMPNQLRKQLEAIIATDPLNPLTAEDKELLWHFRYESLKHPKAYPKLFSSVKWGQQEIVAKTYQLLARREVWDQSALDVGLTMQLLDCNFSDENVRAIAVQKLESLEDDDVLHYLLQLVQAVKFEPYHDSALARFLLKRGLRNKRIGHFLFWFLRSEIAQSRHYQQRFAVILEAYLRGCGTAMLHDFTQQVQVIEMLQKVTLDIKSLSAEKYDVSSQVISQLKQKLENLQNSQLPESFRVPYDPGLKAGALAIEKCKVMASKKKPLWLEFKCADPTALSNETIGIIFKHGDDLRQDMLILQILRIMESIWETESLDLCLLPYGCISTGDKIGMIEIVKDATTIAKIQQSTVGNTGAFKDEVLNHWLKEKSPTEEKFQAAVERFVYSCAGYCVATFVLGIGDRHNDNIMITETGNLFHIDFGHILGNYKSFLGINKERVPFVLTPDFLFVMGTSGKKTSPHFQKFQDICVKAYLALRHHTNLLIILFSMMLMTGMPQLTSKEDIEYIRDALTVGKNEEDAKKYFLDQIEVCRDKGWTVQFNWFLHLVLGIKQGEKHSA

Structure (SMILES): Cc1nc(NC(=O)N2CCC[C@H]2C(N)=O)sc1-c1csc(C(C)(C)C)n1 [A66]
- phenotype of CD8 T cells (TCM vs TEM) compared to non-treated cells [1]: no differences in the phenotype

Structure (SMILES): CC[C@H](Nc1ncnc2[nH]cnc12)c1nc2cccc(F)c2c(=O)n1-c1ccccc1 [CAL-101]
- percentage of TCM ([1]; D3, stim1, representative example, non-treated 4%): 32%
- percentage of terminally differentiated T-cells ([1]; D7, Stim 3, representative example, non-treated 36%): 5%
- percentage of TEM cells (CD62LloCD44hi) ([1]; D7, Stim3, representative example, non-treated 64%): 95%

Structure (SMILES): CS(=O)(=O)N1CCN(Cc2cc3nc(-c4cccc5[nH]ncc45)nc(N4CCOCC4)c3s2)CC1 [GDC-0941]
- percentage of TCM phenotype (CD62LhiCD44hi) ([1]; GDC at the highest concentration, non-treated cells 96% TEM): 37%
- percentage of TEM ([1]; GDC treatment, after the third stimulation, non-treated 64%): 93%
- percentage of TCM ([1]; GDC treatment, after the third stimulation, non-treated less than 0.01): 3.5%
- phenotype of CD8 T cells (TCM vs TEM) compared to non-treated cells ([1]; listed as GDC): high percentage of the TCM phenotype; also recorded: high percentage of TCM cells
- phenotype of CD8 T cells (TEM, terminally differentiated) compared to non-treated or other inhibitors ([1]; after the second and third stimulations): higher percentage of TEM
- percentage of terminally differentiated T-cells (CD62LloCD44lo) ([1]; after the third stimulation, highest GDC concentration, non-treated 36%): 4%
- CD62L expression level [1]: maintains a high level of CD62L expression
- CD62L expression level ([1]; listed as GDC): maintained high expression levels of CD62L
- ability of CD8 T cells to produce IFNγ and TNF ([2]; GDC-0941, A66 (288 nM), TGX-221 (45 nM), CAL-101 (202.5 nM), re-stimulated days 7 and 14, supernatant after 24 hours): not affected
- IL-2 secretion ([2]; after re-stimulation (stimulation 3), normalized to GP100, GDC 99 nM, CAL-101 202.5 nM, listed as GDC): significantly higher levels of IL-2; also recorded: maintained a significantly high level of IL-2 secretion
- toxicity to CD8 T cells ([3]; highest dose tested (279 nM)): toxic
- expansion of CD8 T cells ([3]; with further stimulations (days 7 and 14), vs non-treated cells): expand at a significantly high rate

Structure (SMILES): Cc1cc(C(C)Nc2ccccc2)c2nc(N3CCOCC3)cc(=O)n2c1 (centres unmarked) [TGX-221]
- phenotype of CD8 T cells (TCM vs TEM) compared to non-treated cells [1]: no differences in the phenotype
- IC50 (p110γ): > 10 µM
- IC50 (p110δ): 0.1 µM
- IC50 (p110α): 5 µM
